Consider two molecules from publication PMC11167047 (Cell Death Discovery, 2024).

Common to all, as to test: kinome screen (33PanQinase)
Assay type in all cases: biochemical

The target of assay [1] is T1, TRKB (Homo sapiens, UniProt Q16620).
T1 construct: purchased Reaction Biology Europe GmbH (formerly ProQinase)
As to the method:
(§1) The Kinome Screening was performed by Reaction Biology Europe GmbH (http://reactionbiology.com; Freiburg i. Br., Germany).

Assay [2] has as its target T2, MUSK (Homo sapiens, UniProt O15146).
T2 construct: purchased Reaction Biology Europe GmbH (formerly ProQinase)
T2 sequence (O15146 24-869): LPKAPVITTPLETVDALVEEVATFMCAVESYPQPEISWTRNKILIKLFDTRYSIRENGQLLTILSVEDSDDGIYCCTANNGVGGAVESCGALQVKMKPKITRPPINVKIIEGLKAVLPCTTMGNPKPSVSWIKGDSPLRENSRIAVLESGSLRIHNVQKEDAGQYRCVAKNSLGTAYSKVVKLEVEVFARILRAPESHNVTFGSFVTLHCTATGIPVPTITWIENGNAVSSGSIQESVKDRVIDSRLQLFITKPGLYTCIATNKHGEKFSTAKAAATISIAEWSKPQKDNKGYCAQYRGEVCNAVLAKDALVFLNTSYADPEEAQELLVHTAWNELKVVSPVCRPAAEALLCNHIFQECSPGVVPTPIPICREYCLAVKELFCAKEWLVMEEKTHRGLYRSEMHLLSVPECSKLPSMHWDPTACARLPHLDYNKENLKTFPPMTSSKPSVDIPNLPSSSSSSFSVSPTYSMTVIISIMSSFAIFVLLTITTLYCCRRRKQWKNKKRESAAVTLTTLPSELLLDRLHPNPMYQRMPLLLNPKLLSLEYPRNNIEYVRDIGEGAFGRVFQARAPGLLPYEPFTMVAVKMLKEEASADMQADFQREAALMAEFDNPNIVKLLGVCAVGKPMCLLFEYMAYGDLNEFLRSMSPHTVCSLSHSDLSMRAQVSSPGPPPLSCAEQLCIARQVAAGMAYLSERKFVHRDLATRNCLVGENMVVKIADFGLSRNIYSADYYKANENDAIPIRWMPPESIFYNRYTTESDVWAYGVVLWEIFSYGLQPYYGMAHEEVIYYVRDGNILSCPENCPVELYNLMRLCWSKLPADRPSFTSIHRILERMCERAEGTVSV
The procedure: as §1

Assay [3] concerns the target T3, FLT3 (Homo sapiens, UniProt P36888).
T3 construct: purchased Reaction Biology Europe GmbH (formerly ProQinase)
T3 sequence (P36888 27-993): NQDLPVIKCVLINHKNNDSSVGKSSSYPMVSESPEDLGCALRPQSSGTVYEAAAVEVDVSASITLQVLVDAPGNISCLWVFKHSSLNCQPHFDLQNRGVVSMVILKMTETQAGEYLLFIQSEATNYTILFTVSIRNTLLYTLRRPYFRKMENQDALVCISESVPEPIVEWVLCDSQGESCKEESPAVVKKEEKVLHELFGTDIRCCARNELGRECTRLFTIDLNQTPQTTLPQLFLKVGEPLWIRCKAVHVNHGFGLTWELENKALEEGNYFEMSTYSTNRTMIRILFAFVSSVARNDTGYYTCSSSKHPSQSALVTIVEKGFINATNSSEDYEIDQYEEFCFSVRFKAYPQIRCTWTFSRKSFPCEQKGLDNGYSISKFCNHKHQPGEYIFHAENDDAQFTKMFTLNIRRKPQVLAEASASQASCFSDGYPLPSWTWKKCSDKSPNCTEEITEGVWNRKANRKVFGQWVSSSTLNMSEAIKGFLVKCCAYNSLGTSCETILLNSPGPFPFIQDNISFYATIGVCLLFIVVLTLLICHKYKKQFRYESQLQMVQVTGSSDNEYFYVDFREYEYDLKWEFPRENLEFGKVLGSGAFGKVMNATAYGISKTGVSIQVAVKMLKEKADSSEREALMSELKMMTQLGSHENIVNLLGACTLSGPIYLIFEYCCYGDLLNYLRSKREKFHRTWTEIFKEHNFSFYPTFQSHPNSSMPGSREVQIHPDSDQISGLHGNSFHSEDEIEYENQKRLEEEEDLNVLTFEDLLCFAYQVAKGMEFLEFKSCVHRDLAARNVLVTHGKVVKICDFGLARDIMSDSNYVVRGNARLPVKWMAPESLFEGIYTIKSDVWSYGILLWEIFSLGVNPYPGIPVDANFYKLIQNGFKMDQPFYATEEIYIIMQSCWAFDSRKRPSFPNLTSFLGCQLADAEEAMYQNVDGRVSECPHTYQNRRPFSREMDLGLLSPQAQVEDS
As to the method:
as §1

Assay [4] concerns the target T4, SGK2 (Homo sapiens, UniProt Q9HBY8).
T4 construct: purchased Reaction Biology Europe GmbH (formerly ProQinase)
T4 sequence (Q9HBY8 1-367): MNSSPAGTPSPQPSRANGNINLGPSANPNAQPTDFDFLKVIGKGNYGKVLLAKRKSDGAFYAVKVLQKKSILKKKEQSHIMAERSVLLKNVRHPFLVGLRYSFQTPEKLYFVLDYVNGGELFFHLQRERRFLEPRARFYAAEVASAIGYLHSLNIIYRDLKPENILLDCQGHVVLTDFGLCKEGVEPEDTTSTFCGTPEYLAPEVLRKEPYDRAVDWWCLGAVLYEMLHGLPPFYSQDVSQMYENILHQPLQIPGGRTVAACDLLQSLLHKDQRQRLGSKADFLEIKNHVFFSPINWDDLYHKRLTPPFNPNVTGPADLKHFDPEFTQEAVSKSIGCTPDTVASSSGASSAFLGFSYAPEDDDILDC
The procedure:
as §1

The target in assay [5] is T5, SGK3 (Homo sapiens, UniProt Q96BR1).
T5 construct: purchased Reaction Biology Europe GmbH (formerly ProQinase)
T5 sequence (Q96BR1 1-496): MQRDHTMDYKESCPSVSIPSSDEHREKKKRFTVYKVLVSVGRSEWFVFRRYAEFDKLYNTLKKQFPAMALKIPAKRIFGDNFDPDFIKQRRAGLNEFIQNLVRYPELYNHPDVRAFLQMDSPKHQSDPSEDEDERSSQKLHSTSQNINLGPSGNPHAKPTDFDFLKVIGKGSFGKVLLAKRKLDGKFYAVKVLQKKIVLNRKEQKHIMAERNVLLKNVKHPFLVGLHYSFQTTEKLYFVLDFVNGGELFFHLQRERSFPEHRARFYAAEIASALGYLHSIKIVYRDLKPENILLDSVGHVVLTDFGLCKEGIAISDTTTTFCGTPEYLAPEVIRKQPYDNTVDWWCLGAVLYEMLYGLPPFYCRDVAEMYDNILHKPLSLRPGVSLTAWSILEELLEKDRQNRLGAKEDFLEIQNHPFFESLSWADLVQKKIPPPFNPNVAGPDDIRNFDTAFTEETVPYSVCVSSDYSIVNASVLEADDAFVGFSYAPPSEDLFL
The procedure: as §1

The target of assay [6] is T6, IRAK1 (Homo sapiens, UniProt P51617).
T6 construct: purchased Reaction Biology Europe GmbH (formerly ProQinase)
T6 sequence (P51617 whole entry): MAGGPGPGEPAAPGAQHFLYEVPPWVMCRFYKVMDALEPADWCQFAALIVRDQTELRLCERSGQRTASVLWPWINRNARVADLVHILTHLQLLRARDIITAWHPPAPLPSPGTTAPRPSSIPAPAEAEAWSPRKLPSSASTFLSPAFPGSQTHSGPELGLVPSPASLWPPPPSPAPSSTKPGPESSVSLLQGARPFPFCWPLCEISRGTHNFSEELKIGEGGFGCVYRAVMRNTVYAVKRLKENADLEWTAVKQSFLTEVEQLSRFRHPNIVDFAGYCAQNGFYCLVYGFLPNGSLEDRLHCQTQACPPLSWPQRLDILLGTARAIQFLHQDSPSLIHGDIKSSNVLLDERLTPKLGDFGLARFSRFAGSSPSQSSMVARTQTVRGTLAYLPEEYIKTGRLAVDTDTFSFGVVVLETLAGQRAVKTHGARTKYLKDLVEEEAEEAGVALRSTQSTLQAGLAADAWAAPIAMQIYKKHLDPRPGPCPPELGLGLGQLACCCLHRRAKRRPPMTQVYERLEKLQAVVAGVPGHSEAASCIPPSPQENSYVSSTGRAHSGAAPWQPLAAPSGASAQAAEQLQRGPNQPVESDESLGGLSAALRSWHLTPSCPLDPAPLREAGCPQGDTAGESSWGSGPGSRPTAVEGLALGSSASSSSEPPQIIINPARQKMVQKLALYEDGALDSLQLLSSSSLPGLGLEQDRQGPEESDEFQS
As to the method:
as §1

T1 sequence (Q16620 32-822): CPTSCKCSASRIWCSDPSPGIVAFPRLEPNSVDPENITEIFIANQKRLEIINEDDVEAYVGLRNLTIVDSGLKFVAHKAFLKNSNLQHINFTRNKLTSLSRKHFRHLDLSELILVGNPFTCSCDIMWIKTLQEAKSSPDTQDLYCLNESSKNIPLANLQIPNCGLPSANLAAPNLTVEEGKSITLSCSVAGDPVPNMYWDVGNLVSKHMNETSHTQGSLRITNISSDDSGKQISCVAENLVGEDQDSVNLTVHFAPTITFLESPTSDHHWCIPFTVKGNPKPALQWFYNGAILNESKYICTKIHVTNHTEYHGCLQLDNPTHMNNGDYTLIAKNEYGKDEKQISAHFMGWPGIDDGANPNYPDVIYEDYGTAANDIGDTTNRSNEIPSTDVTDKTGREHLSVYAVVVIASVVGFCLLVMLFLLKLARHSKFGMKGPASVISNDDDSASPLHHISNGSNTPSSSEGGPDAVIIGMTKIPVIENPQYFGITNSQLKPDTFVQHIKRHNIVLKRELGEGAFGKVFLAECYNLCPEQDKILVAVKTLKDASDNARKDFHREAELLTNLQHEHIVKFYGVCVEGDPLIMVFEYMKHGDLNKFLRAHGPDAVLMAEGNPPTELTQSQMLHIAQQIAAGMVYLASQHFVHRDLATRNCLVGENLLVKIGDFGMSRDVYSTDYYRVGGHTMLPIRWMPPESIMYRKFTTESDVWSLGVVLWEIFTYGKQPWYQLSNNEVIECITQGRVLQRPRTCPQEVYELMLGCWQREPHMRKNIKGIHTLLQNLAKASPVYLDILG

Take `c1ccc(CNc2cc(-c3c[nH]c4ncccc34)ccn2)cc1` [meriolin 36]: the residual kinase activity in assay [1] (0.3 µM) is reported as 10 % of control; in assay [1] (3 µM), 2 % of control; in assay [2] (0.3 µM), 28 % of control; in assay [2] (3 µM) it was 5 % of control; in assay [3] (0.3 µM), 9 % of control; in assay [3] (3 µM) it was 2 % of control. The residual kinase activity was 88 % of control in assay [4] (0.3 µM); 32 % of control in assay [4] (3 µM); 81 % of control in assay [5] (0.3 µM); 27 % of control in assay [5] (3 µM); 49 % of control in assay [6] (0.3 µM); 9 % of control in assay [6] (3 µM).
Regarding `COc1ccnc2[nH]cc(-c3cc(N)nc(N)c3)c12` [meriolin 16], the residual kinase activity in assay [1] (0.03 µM) is 68 % of control; in assay [1] (0.3 µM) it was 29 % of control; in assay [2] (0.03 µM), 88 % of control; in assay [2] (0.3 µM), 70 % of control; in assay [3] (0.03 µM) it was 49 % of control; in assay [3] (0.3 µM), 21 % of control. For the same molecule, the residual kinase activity in assay [4] (0.03 µM) was 97 % of control; in assay [4] (0.3 µM), 74 % of control; in assay [5] (0.03 µM), 94 % of control; in assay [5] (0.3 µM) it was 84 % of control; in assay [6] (0.03 µM) it was 95 % of control; in assay [6] (0.3 µM) it was 76 % of control.
